Consider one compound from US9969698B2, “Quinoxalinyl-piperazinamide methods of use” (REXAHN PHARMACEUTICALS, INC., priority 2015, dated 2018).

Marks after values point to notes of the source that are not given here.

Data set [1] relates to CYP450 isozymes 1A2, 2A6, 2B6, 2C8, 2C9, 2C19, 2D6. The data set is described as follows: Loss of RX-5902 after incubation with other expressed CYP450 isozymes. The data set is classed as in vitro ADME. Particulars: 30-minute incubation with any other CYP isozyme. The protocol:
Two in vitro studies were performed to examine the involvement of specific cytochrome P450 (CYP450) isozymes in the in vitro metabolism of RX-5902. In the first study, the loss of RX-5902 was measured after incubation with expressed CYP450 isozymes (1A2, 2A6, 2B6, 2C8, 2C9, 2C19, 2D6, 3A4 and 3A5). […] In the second study, RX-5902 was incubated with pooled human liver microsomes in the presence of CYP450 isozyme-selective chemical inhibitors. The inhibitors tested were selective for 1A2, 2A6, 2B6, 2C8, 2C9, 2C19, 2D6, and 3A4/5.

The test system of data set [2] is human colorectal tumor xenografts (Colo205). The data set is described as follows: Colorectal cancer xenograft model. Format: in vivo, mice. Particulars: oral. The text has this:
The efficacy of RX-5902 in human cancer xenograft mouse models is examined. Female nude mice (nu/nu, Harlan or CRL: NU(NCr)-Foxn1^nu, Charles River), 9-10 weeks old, with a body weight (BW) range of 15-30 g on day 1 of the study, are fed ad libitum water (reverse osmosis, 1 ppm C1), and NIH 31 Modified and Irradiated Lab Diet® consisting of 18.0% crude protein, 5.0% crude fat, and 5.0% crude fiber. The mice are housed on irradiated Enrich-o'Cobs™ Laboratory Animal Bedding in static microisolators on a 12-hour light cycle at 20-22° C. (68-72° F.) and 40-60% humidity. The study complies with the recommendations of the Guide for, Care and Use of Laboratory Animals with respect to restraint, husbandry, surgical procedures, feed and fluid regulation, and veterinary care.
Various human tumor cell lines (e.g., HCT116, HT29, H460, H69, Caki-1, CaSki, MiaPaca2, BxPC3 and Colo 205 cells [ATCC, Manassas, Va., USA]) are cultured according to ATCC's instruction. […]
The cells are harvested during exponential growth and re-suspended with phosphate buffered saline. Each test animal receives a subcutaneous (s.c.) injection of 5×10^6 tumor cells into the right flank and tumor growth is monitored as the average tumor size approaches the target range of 80-300 mm^3. […] Tumors and body weights are measured regularly until the study is terminated.
Tumors are measured in two dimensions using calipers, and volume is calculated using the formula: […]
Treatment efficacy is determined using data from Day 15. The MTV (n), the median tumor volume for the number of animals, n, on Day 15, is determined for each group. Percent tumor growth inhibition (% TGI) is defined as the difference between the MTV of the designated control group (vehicle administration) and the MTV of the drug-treated group, expressed as a percentage of the MTV of the control group: % TGI=[1−(MTVdrug treated/MTVcontrol)]×100 The data set for TGI analysis includes all animals in a group, except those that die due to treatment-related (TR) or non-treatment-related (NTR) causes. […]
Animals are monitored individually for tumor growth until Day 71. […]

Turning to `COc1cc(OC)cc(N2CCN(C(=O)Nc3nc4cc(F)ccc4nc3OC)CC2)c1` [RX-5902, 4-(3,5-dimethoxyphenyl)-N-(7-fluoro-3-methoxyquinoxalin-2-yl)piperazine-1-carboxamide], the “loss of RX-5902” value in data set [1] is given as “little loss”. Moreover, the TGI % turned out to be 0%* in data set [2] (160 mg/kg QWK), 13%* in data set [2] (320 mg/kg QWK) and 33%* in data set [2] (600 mg/kg QWK).
